From PMC11238290, “Anti-Staphy Peptides Rationally Designed from Cry10Aa Bacterial Protein” (ACS Omega, 2024)
Where a SMILES comes first, the peptide text is derived from it.

Tests used:
[1] = Peptide stability in human serum by RP-HPLC; type: in vitro ADME; details: human serum (male AB plasma, Sigma-Aldrich), serum:peptide 5:1 v/v, peptide 256 μM, 37 °C, RP-HPLC Venusil ASB C18, PDA 216 nm; for relative peak area (%), peptide remaining in human serum, 6 h: 360 min; for peptide remaining in human serum, 24 h: triplicate
Experimental: (§1) The stability of peptides AMPCry10Aa, AMPCry10Aa_1, and AMPCry10Aa_5, against serum proteases was evaluated as previously described.[86],[87] Aliquots of filtered human serum from male AB plasma from Sigma-Aldrich were mixed with each peptide to a final concentration of 256 μM in a 5:1 v/v ratio. Each aliquot was then incubated at 37 °C, and 200 μL was collected for analysis of peptide degradation at 0, 2, 4, 6, 12, and 24 h. The samples were analyzed by reversed-phase high-performance liquid chromatography (RP-HPLC) with a Shimadzu LC system (Kyoto, Japan) using LC Solution software. A gradient method and a Venusil ASB C18 column (250 mm × 4.6 mm, 5 μm, Bonna-Agela Technologies) with an injection volume of 15 μL were used. A segmented gradient was applied with a constant flow rate of 1.0 mL min^–1 and PDA detection at 216 nm using water and acetonitrile eluents as the mobile phase. The peptide amount was quantified by subtracting the relative area of each analyzed time peak from the initial control peak area. All assays were performed in triplicate.

[2] = test system: serum proteases; test: Peptide stability in human serum by RP-HPLC; type: in vitro ADME; details: human serum (male AB plasma, Sigma-Aldrich), serum:peptide 5:1 v/v, peptide 256 μM, 37 °C, RP-HPLC Venusil ASB C18, PDA 216 nm, mean ± SD of three replicates; for remaining at 2 h, 256 μM: read-out: relative peak area (%), peptide remaining in human serum, 2 h; for remaining at 4 h, 256 μM: read-out: relative peak area (%), peptide remaining in human serum, 4 h; for remaining at 6 h, 256 μM: read-out: relative peak area (%), peptide remaining in human serum, 6 h; for remaining at 12 h, 256 μM: read-out: relative peak area (%), peptide remaining in human serum, 12 h
Experimental: as §1

[3] = Solubility observed in the aqueous EPR treatment solution; type: physicochemical; details: 100 μg of peptide in 50 μL of PBS (EPR treatment); observation
Source text: The EPR spectra (Figure 8A) indicate that the spin probe was structured in very rigid membranes, presenting 2A∥ values of ∼62 to ∼63 G, much higher than those found for the Leishmania parasite (∼54 G).[73]−[76] […] Pronounced increases in lipid fluidity generally create disorder in the lipid chains packaging, especially at lipid–protein interfaces, where they increase the likelihood of pore formation that could lead to electrolyte leakage and permeation of small molecules.[77]
Peptides' immediate effects on bacteria’s outermost membrane fluidity were analyzed by EPR spectroscopy. The bacteria in culture (1 × 10^9 CFU) were centrifuged and resuspended in 50 μL of PBS containing 100 μg of peptide. After 20 min of incubation, the sample was spin-labeled for the EPR experiment. To incorporate the spin label into the bacterial membranes, a 5 mg·mL^–1 ethanolic solution containing the spin label 5-doxyl stearic acid (5-DSA, Sigma-Aldrich, St. Louis, MO, USA) was added to each sample. Immediately after spin labeling, the sample was transferred to a 1 mm i.d. capillary tube, which was flame-sealed on one side. The capillary was centrifuged at 25,000 × g for 5 min, and the cell pellet of approximately 2 mm was placed in the center of the resonance cavity. […]

In the case of CC[C@H](C)[C@H](N)C(=O)N[C@H](C(=O)N[C@@H](CC(N)=O)C(=O)N[C@H](C(=O)N[C@@H](CC(C)C)C(=O)N[C@H](C(=O)N[C@@H](CO)C(=O)N[C@H](C(=O)N[C@H](C(=O)N[C@H](C(=O)N1CCC[C@H]1C(=O)N[C@H](C(=O)N[C@@H](CCCCN)C(=O)N[C@@H](CC(N)=O)C(=O)N[C@@H](CCC(N)=O)C(=O)N[C@@H](CC(C)C)C(=O)N[C@@H](CC(=O)O)C(=O)N[C@@H](CCCCN)C(=O)N[C@@H](Cc1ccc(O)cc1)C(=O)N[C@@H](CCC(N)=O)C(N)=O)[C@@H](C)CC)[C@@H](C)O)C(C)C)[C@@H](C)CC)[C@@H](C)O)C(C)C)[C@@H](C)CC [AMPCry10Aa] (H-IINVLTSIVTPIKNQLDKYQ-NH2), the “relative peak area (%), peptide remaining in human serum, 0 h” value ([1]; mean ± SD of three replicates) is reported as 92.2 ± 3.23%, the “relative peak area (%), peptide remaining in human serum, 2 h” value ([1]; 2 h, mean ± SD of three replicates) is reported as “about 40%” and the “relative peak area (%), peptide remaining in human serum, 12 h” value ([1]; mean ± SD of three replicates) is reported as “no longer detectable”. The remaining at 2 h, 256 μM [2] was 39.6 ± 2.44%, the remaining at 4 h, 256 μM [2] was 18.6 ± 2.76% and the remaining at 6 h, 256 μM [2] was roughly 0%. For the same compound, the “solubility in the aqueous treatment solution” value [3] was “did not dissolve”.

For CC[C@H](C)[C@H](NC(=O)[C@H](C)NC(=O)[C@@H](NC(=O)[C@@H](NC(=O)[C@@H](NC(=O)[C@@H](NC(=O)[C@@H](NC(=O)[C@H](CCCCN)NC(=O)[C@H](CC(C)C)NC(=O)[C@H](CC(N)=O)NC(=O)[C@H](CC(=O)O)NC(=O)[C@@H](N)CCCCN)[C@@H](C)O)[C@@H](C)CC)[C@@H](C)CC)C(C)C)[C@@H](C)O)C(=O)N[C@@H](CCCCN)C(=O)N[C@@H](CC(N)=O)C(=O)N[C@H](C(=O)N[C@@H](CC(C)C)C(=O)N[C@@H](CC(=O)O)C(=O)N[C@@H](CCCCN)C(=O)N[C@@H](Cc1ccc(O)cc1)C(=O)N[C@@H](CCC(N)=O)C(N)=O)[C@@H](C)CC [AMPCry10Aa_1] (H-KDNLKTIIVTAIKNILDKYQ-NH2), the “relative peak area (%), peptide remaining in human serum, 0 h” value ([1]; mean ± SD of three replicates) was 96.93 ± 0.51%, the “relative peak area (%), peptide remaining in human serum, 6 h” value ([1]; mean ± SD of three replicates) was 58.96 ± 2.33% and the “relative peak area (%), peptide remaining in human serum, 12 h” value ([1]; mean ± SD of three replicates) was “trace”. The “peptide remaining in human serum, 24 h” value [1] was “no longer detectable”, the remaining at 2 h, 256 μM [2] was 81.8 ± 1.54% and the remaining at 4 h, 256 μM [2] was 74.7 ± 1.98%. The remaining at 6 h, 256 μM [2] was 60% and the remaining at 12 h, 256 μM [2] was 4.37 ± 1.32%.

In the case of CC[C@H](C)[C@H](N)C(=O)N[C@H](C(=O)N[C@@H](CC(N)=O)C(=O)N[C@H](C(=O)N[C@@H](CCCCN)C(=O)N[C@H](C(=O)N[C@@H](CO)C(=O)N[C@@H](CC(C)C)C(=O)N[C@@H](CCCCN)C(=O)N[C@H](C(=O)N[C@H](C(=O)N[C@H](C(=O)N[C@@H](CCCCN)C(=O)N[C@@H](CC(N)=O)C(=O)N[C@@H](C)C(=O)N[C@@H](CC(C)C)C(=O)N[C@@H](CC(=O)O)C(=O)N[C@@H](CCCCN)C(=O)N[C@H](C(=O)N[C@@H](CCC(N)=O)C(N)=O)[C@@H](C)CC)[C@@H](C)CC)[C@@H](C)CC)[C@@H](C)O)[C@@H](C)O)C(C)C)[C@@H](C)CC [AMPCry10Aa_5] (H-IINVKTSLKTIIKNALDKIQ-NH2), the “relative peak area (%), peptide remaining in human serum, 0 h” value ([1]; mean ± SD of three replicates) is reported as 92.83 ± 3.33%, the “relative peak area (%), peptide remaining in human serum, 6 h” value ([1]; mean ± SD of three replicates) is reported as 36.73 ± 1.84% and the “relative peak area (%), peptide remaining in human serum, 12 h” value ([1]; mean ± SD of three replicates) is reported as “trace”. The “peptide remaining in human serum, 24 h” value [1] was “no longer detectable”, the remaining at 2 h, 256 μM [2] was 81.6 ± 2.21% and the remaining at 4 h, 256 μM [2] was 68.8 ± 0.99%. For the same compound, the remaining at 6 h, 256 μM [2] was 40% and the remaining at 12 h, 256 μM [2] was 8.11 ± 3.65%.
